# Source: publication PMC10969960, “Novel Anthraquinone-Based Benzenesulfonamide Derivatives and Their Analogues as Potent Human Carbonic Anhydrase Inhibitors with Antitumor Activity: Synthesis, Biological Evaluation, and In Silico Analysis” (International Journal of Molecular Sciences, 2024)
# Read-outs that look alike come from different tables or passages of the source.
# Key:
# hCA II = biological target: T1, hCA II (Homo sapiens, UniProt P00918); test: CA inhibition assay, 4-nitrophenyl acetate (4-NPA) esterase assay; assay type: biochemical; settings: errors ±5–10% of the reported values
# T1 construct: purchased Shanghai Jining Biological
# hCA IX = biological target: T2, hCA IX (Homo sapiens, UniProt Q16790); test: as above; assay type: biochemical; settings: errors ±5–10% of the reported values
# T2 construct: purchased Shanghai Jining Biological
# MDA-MB-231 cancer cells = test: MTT anti-proliferative assay; assay type: cell-based; settings: Homo sapiens, 24 h
# Method: (§5) The median growth-inhibitory concentration (IC50) in the treated cells was compared to that of untreated controls. Cells were cultured under normoxic and hypoxic conditions to evaluate the effects of the compounds on cancer cell viability.
# (§6) The cell cultures were passaged once every 2–3 days.
# (§7) The 3-(4,5-dimethylthiazol-2-yl)-2,5-diphenyltetrazolium bromide (MTT) assay was used to measure the cell viability. Cells were planted into 96-well plates (4 × 10^3 cells per well) and cultured in media containing different concentrations of compounds. […] The supernatant was then discarded, and 150 μL of DMSO was added to each well, followed by gentle shaking. The absorbance value at 570 nm was measured using an EL808 microplate reader (Bio-TEK Instrument, Winooski, VT, USA).
# MCF-7 cancer cells = test: MTT anti-proliferative assay; assay type: cell-based; settings: Homo sapiens, MCF7, 24 h
# Method: as §5, §6, §7
# HepG2 cancer cells = test: MTT anti-proliferative assay; assay type: cell-based; settings: Homo sapiens, 24 h
# Method: as §5, §6, §7
# HepG2 cells = test: Annexin V-FITC/propidium iodide analysis of apoptosis; assay type: cell-based; settings: HepG2, 24 h incubation
# Method: (§1) Annexin V-FITC/propidium iodide analysis of apoptosis assays were conducted to evaluate the effect of 5c on apoptosis in the MDA-MB-231, MCF-7, and HepG2 cancer cell lines. As shown in Table 3 and Figure 4, a significant increase in the percentage of apoptotic cells (containing early and late apoptosis percentages) and a notable decrease in cell viability were observed after incubation with compound 5c for 24 h.
# (§2) Cells were cultured in 6-well plates and treated with the compounds for 24 h. Approximately 1 × 10^5 cells were collected and suspended in binding buffer. Apoptosis was analyzed using an AV/PI apoptosis detection kit (Beyotime Institute of Biotechnology, Shanghai, China) with a flow cytometer (BD Bioscience, Franklin Lakes, NJ, USA).
# MCF-7 cells = test: as above; assay type: cell-based; settings: MCF-7, 24 h incubation
# Method: as §1, §2
# MDA-MB-231 cells = test: as above; assay type: cell-based; settings: MDA-MB-231, 24 h incubation
# Method: as §1, §2
# HepG2 cell line = test: Mitochondrial membrane potential assay (JC-1 staining); assay type: cell-based; settings: HepG2, 20 μM, 48 h
# Method: (§3) The present study investigated the involvement of mitochondria in compound-5-induced apoptosis by JC-1 staining. Red fluorescence indicates JC-1 aggregates, and green fluorescence indicates membrane potential leading to an increase in JC-1 monomers.
# (§4) A mitochondrial membrane potential assay kit (Beyotime Co., Nantong, China) was used to measure the mitochondrial membrane potential with a JC-1 fluorescent probe. […] The cells were then fixed with 4% paraformaldehyde and stained with 5 mg/L JC-1 at 37 °C for 1 h. Fluorescent images were acquired using a fluorescence microscope (Olympus IX81, Olympus, Tokyo, Japan).
# MCF-7 cell line = test: as above; assay type: cell-based; settings: MCF-7, 20 μM, 48 h
# Method: as §3, §4
# MDA-MB-231 cell line = test: as above; assay type: cell-based; settings: MDA-MB-231, 20 μM, 48 h
# Method: as §3, §4
# [1] = hypoxic (0.5% O2), read-out: IC50 MDA-MB-231 Hypo
# [2] = normoxic, read-out: IC50 MDA-MB-231 Normo
# [3] = hypoxic (0.5% O2), read-out: IC50 MCF-7 Hypo
# [4] = normoxic, read-out: IC50 MCF-7 Normo
# [5] = hypoxic (0.5% O2), read-out: IC50 HepG2 Hypo
# [6] = normoxic, read-out: IC50 HepG2 Normo
Structure (SMILES),IC50 (hCA II) [nM],IC50 (hCA IX) [nM],melting point [°C],also measured
O=C(NC(=S)Nc1ccc(S(=O)(=O)Nc2ncccn2)cc1)c1ccc2c(c1)C(=O)c1ccccc1C2=O [Compound 5j],87.7,77.7,237 to 237.2,
"COC(=O)c1ccc(NC(=S)NC(=O)c2ccc3c(c2)C(=O)c2ccccc2C3=O)cc1 [Compound 5f, Methyl 4-(3-(9,10-Dioxo-9,10-Dihydroanthracene-2-Carbonyl)Thioureido)Benzoate]",147,190,211 to 211.4,
"NS(=O)(=O)c1cccc(NC(=S)NC(=O)c2ccc3c(c2)C(=O)c2ccccc2C3=O)c1 [Compound 5d, 9,10-Dioxo-N-((3-Sulfamoylphenyl)Carbamothioyl)-9,10-Dihydroanthracene-2-Carboxamide]",64.3,73.6,146.5 to 146.8,
"NS(=O)(=O)c1ccc(CCNC(=S)NC(=O)c2ccc3c(c2)C(=O)c2ccccc2C3=O)cc1 [Compound 5h, 9,10-Mioxo-N-((4-Sulfamoylphenethyl)Carbamothioyl)-9,10-Dihydroanthracene-2-Carboxamide]",21.2,46.2,323 to 323.5,IC50 (MDA-MB-231 cancer cells; [1]): 81200 ± 7340 nM; IC50 (MDA-MB-231 cancer cells; [2]): 75200 ± 6810 nM; IC50 (MCF-7 cancer cells; [3]): 57400 ± 5500 nM; IC50 (MCF-7 cancer cells; [4]): 63800 ± 5570 nM; IC50 (HepG2 cancer cells; [5]): 80400 ± 7140 nM; IC50 (HepG2 cancer cells; [6]): 81400 ± 7030 nM
"O=C(NC(=S)Nc1ccc(S(=O)(=O)Nc2nccs2)cc1)c1ccc2c(c1)C(=O)c1ccccc1C2=O [Compound 5m, 9,10-Dioxo-N-((4-(N-(Thiazol-2-yl)Sulfamoyl)Phenyl)Carbamothioyl)-9,10-Dihydroanthracene-2-Carboxamide]",95.9,71,,
"N=C(N)NS(=O)(=O)c1ccc(NC(=S)NC(=O)c2ccc3c(c2)C(=O)c2ccccc2C3=O)cc1 [Compound 5n, ((4-(N-Carbamimidoylsulfamoyl)Phenyl)Carbamothioyl)-9,10-Dioxo-9,10-Dihydroanthracene-2-Carboxamide]",98.4,103,206 to 206.5,
"CC(=O)NS(=O)(=O)c1ccc(NC(=S)NC(=O)c2ccc3c(c2)C(=O)c2ccccc2C3=O)cc1 [Compound 5k, ((4-(N-Acetylsulfamoyl)Phenyl)Carbamothioyl)-9,10-Dioxo-9,10-Dihydroanthracene-2-Carboxamide]",156,227,192 to 192.4,
"O=C(O)c1cccc(NC(=S)NC(=O)c2ccc3c(c2)C(=O)c2ccccc2C3=O)c1 [Compound 5b, 3-(3-(9,10-Dioxo-9,10-Dihydroanthracene-2-Carbonyl) Thioureido) Benzoic Acid]",135,254,,
"NS(=O)(=O)c1ccc(NC(=S)NC(=O)c2ccc3c(c2)C(=O)c2ccccc2C3=O)cc1 [Compound 5c, 9,10-Dioxo-N-((4-Sulfamoylphenyl)Carbamothioyl)-9,10-Dihydroanthracene-2-Carboxamide]",41.6,40.6,,IC50 (MDA-MB-231 cancer cells; [1]): 46200 ± 3930 nM; IC50 (MDA-MB-231 cancer cells; [2]): 48100 ± 3230 nM; IC50 (MCF-7 cancer cells; [3]): 28100 ± 1720 nM; IC50 (MCF-7 cancer cells; [4]): 34300 ± 2850 nM; IC50 (HepG2 cancer cells; [5]): 69400 ± 5160 nM; IC50 (HepG2 cancer cells; [6]): 61400 ± 5750 nM; Cell Viability (Lower Left %) (HepG2 cells): 70.12 ± 2.84%; Total Apoptosis (L.R% + U.R%) (HepG2 cells): 25.06 ± 2.01%; Cell Viability (Lower Left %) (MCF-7 cells): 51.77 ± 2.80%; Total Apoptosis (L.R% + U.R%) (MCF-7 cells): 43.37 ± 3.92%; Cell Viability (Lower Left %) (MDA-MB-231 cells): 68.88 ± 2.30%; Total Apoptosis (L.R% + U.R%) (MDA-MB-231 cells): 27.26 ± 1.76%; mitochondrial membrane potential (HepG2 cell line): reduction in mitochondrial membrane potential; mitochondrial membrane potential (MCF-7 cell line): reduction in mitochondrial membrane potential; mitochondrial membrane potential (MDA-MB-231 cell line): reduction in mitochondrial membrane potential
"CC(=O)c1ccc(NC(=S)NC(=O)c2ccc3c(c2)C(=O)c2ccccc2C3=O)cc1 [Compound 5e, ((4-Acetylphenyl)Carbamothioyl)-9,10-Dioxo-9,10-Dihydroanthracene-2-Carboxamide]",132,275,215 to 215.9,
"O=C(O)c1ccc(NC(=S)NC(=O)c2ccc3c(c2)C(=O)c2ccccc2C3=O)cc1 [Compound 5a, (3-(9,10-Dioxo-9,10-Dihydroanthracene-2-Carbonyl) Thioureido) Benzoic Acid]",113,217,221 to 221.4,
"CNS(=O)(=O)c1ccc(NC(=S)NC(=O)c2ccc3c(c2)C(=O)c2ccccc2C3=O)cc1 [Compound 5i, ((4-(N-Methylsulfamoyl)Phenyl)Carbamothioyl)-9,10-Anthraquinone-2-Carboxamide]",76.7,100,207 to 207.6,
"COC(=O)c1cccc(NC(=S)NC(=O)c2ccc3c(c2)C(=O)c2ccccc2C3=O)c1 [Compound 5g, Methyl 3-(3-(9,10-Dioxo-9,10-Dihydroanthracene-2-Carbonyl)Thioureido)Benzoate]",238,251,187 to 187.3,

# Further lines, with some results ahead:
IC50 (hCA II) [nM],IC50 (hCA IX) [nM],melting point [°C],Structure (SMILES),also measured
170,140,304 to 304.3,"CC(=O)NS(=O)(=O)c1ccc(NC(=O)c2ccc3c(c2)C(=O)c2ccccc2C3=O)cc1 [Compound 6k, N-(4-(N-Acetylsulfamoyl)Phenyl)-9,10-Dioxo-9,10-Dihydroanthracene-2-Carboxamide]",
296,194,338 to 338.5,"O=C(O)c1ccc(NC(=O)c2ccc3c(c2)C(=O)c2ccccc2C3=O)cc1 [Compound 6a, 4-(9,10-Dioxo-9,10-Dihydroanthracene-2-Carboxamido)Benzoic Acid]",
172,110,273 to 273.8,"CNS(=O)(=O)c1ccc(NC(=O)c2ccc3c(c2)C(=O)c2ccccc2C3=O)cc1 [Compound 6i, N-(4-(N-Methylsulfamoyl)Phenyl)-9,10-Dioxo-9,10-Dihydroanthracene-2-Carboxamide]",
91.2,55.9,283 to 283.2,"NS(=O)(=O)c1cccc(NC(=O)c2ccc3c(c2)C(=O)c2ccccc2C3=O)c1 [Compound 6d, 9,10-Dioxo-N-(3-Sulfamoylphenyl)-9,10-Dihydroanthracene-2-Carboxamide]",
274,166,274 to 274.6,"O=C(O)c1cccc(NC(=O)c2ccc3c(c2)C(=O)c2ccccc2C3=O)c1 [Compound 6b, (9,10-Dioxo-9,10-Dihydroanthracene-2-Carboxamido)Benzoic Acid]",
61.8,30.1,,"NS(=O)(=O)c1ccc(CCNC(=O)c2ccc3c(c2)C(=O)c2ccccc2C3=O)cc1 [Compound 6h, 9,10-Dioxo-N-(4-Sulfamoylphenethyl)-9,10-Dihydroanthracene-2-Carboxamide]",IC50 (MDA-MB-231 cancer cells; [1]): 50400 ± 4270 nM; IC50 (MDA-MB-231 cancer cells; [2]): 54200 ± 4870 nM; IC50 (MCF-7 cancer cells; [3]): 30300 ± 3140 nM; IC50 (MCF-7 cancer cells; [4]): 41400 ± 2220 nM; IC50 (HepG2 cancer cells; [5]): 54300 ± 5150 nM; IC50 (HepG2 cancer cells; [6]): 58200 ± 5450 nM
,168,266 to 266.5,"CC(=O)c1ccc(NC(=O)c2ccc3c(c2)C(=O)c2ccccc2C3=O)cc1 [Compound 6e, N-(4-Acetylphenyl)-9,10-Dioxo-9,10-Dihydroanthracene-2-Carboxamide]",
68.3,34.9,341 to 341.3,"NS(=O)(=O)c1ccc(NC(=O)c2ccc3c(c2)C(=O)c2ccccc2C3=O)cc1 [Compound 6c, 9,10-Dioxo-N-(4-Sulfamoylphenyl)-9,10-Dihydroanthracene-2-Carboxamide]",IC50 (MDA-MB-231 cancer cells; [1]): 61600 ± 5130 nM; IC50 (MDA-MB-231 cancer cells; [2]): 56300 ± 4190 nM; IC50 (MCF-7 cancer cells; [3]): 47000 ± 4010 nM; IC50 (MCF-7 cancer cells; [4]): 50400 ± 4730 nM; IC50 (HepG2 cancer cells; [5]): 62800 ± 5520 nM; IC50 (HepG2 cancer cells; [6]): 68800 ± 4170 nM
